Laboratory results as given in publication PMC5493200 (ACS infectious diseases, 2016).

Tests used:
M. tuberculosis H37Rv = experiment: microbe, parasite or virus in culture; type: cell-based, Mycobacterium tuberculosis; conditions: Tables 1-4 and text; […]
[1] = system: M. tuberculosis H37Rv Rv1258c knockout (KO); experiment: microbe, parasite or virus in culture; type: cell-based; conditions: Tables 1-4 and text; 7 days, 7H9 broth
[2] = molecular target: Purified 70S M. smegmatis bacterial ribosomes (Mycolicibacterium smegmatis, UniProt A0QSG6); experiment: Ribosomal translation inhibition; type: biochemical; conditions: for Ribosome IC50: inhibits luciferase activity by 50%
Sequence of Purified 70S M. smegmatis bacterial ribosomes (A0QSG6 whole entry): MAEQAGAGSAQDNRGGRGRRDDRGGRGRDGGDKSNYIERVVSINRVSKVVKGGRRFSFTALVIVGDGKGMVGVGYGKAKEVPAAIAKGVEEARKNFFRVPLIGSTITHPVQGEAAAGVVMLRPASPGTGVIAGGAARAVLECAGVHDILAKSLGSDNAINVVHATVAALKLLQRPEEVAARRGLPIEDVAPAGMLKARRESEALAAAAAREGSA

Rv1258c efflux pump = conditions: H37Rv MIC / Rv1258c KO MIC

SMILES	H37Rv MIC (M. tuberculosis H37Rv) [µg/mL]	Rv1258c KO MIC [1] [µg/mL]	Ribosome IC50 [2] [µg/mL]	Efflux Ratio (Rv1258c efflux pump)	other results
CNC1C(O)C(NC)C2OC3(O)C(OC(C)C[C@H]3NC(=O)Cc3cccnc3)OC2C1O.Cl.Cl.Cl (stereo partly drawn) [Compound 3, 3′-Dihydro-3′-deoxy-3′(R)-(pyridin-3yl)acetylamino spectinomycin trihydrochloride]	200	6.3	–	–	–
CNC1C(O)C(NC)C2OC3(O)C(OC(C)C[C@H]3NC(=O)Cc3ccncc3)OC2C1O.Cl.Cl.Cl (stereo partly drawn) [Compound 4, 3′-Dihydro-3′-deoxy-3′(R)-(pyridin-4yl)acetylamino spectinomycin trihydrochloride]	200	12.5	–	–	–
Br.Br.Br.CNC1C(O)C(NC)C2OC3(O)C(NC(=O)Cc4ccccn4)CC(C)OC3OC2C1O [Compound 5, 3′-Dihydro-3′-deoxy-3′(S)-(pyridin-2-yl)acetylamino spectinomycin Trihydrobromide]	–	>200	42.23	–	–
CNC1C(O)C(NC)C2OC3(O)C(OC(C)C[C@H]3NCCc3ccccc3)OC2C1O.Cl.Cl.Cl (stereo partly drawn) [Compound 6, 3′-Dihydro-3′-deoxy-4(R)-2-phenylethylamino spectinomycin trihydrochloride]	200	–	–	–	–
CNC1C(O)C(NC)C2OC3(O)C(OC(C)C[C@H]3NC(=O)Oc3ccccc3)OC2C1O.Cl.Cl (stereo partly drawn) [Compound 7, 3′-Dihydro-3′-deoxy-3′(R)-phenyloxycarbonylamino spectinomycin dihydrochloride]	>200	>200	16.62	–	–
CNC1C(O)C(NC)C2OC3(O)C(NC(=O)c4ccccn4)CC(C)OC3OC2C1O.Cl.Cl.Cl [Compound 11, 3′-Dihydro-3′-deoxy-3′(R)-pyridin-2-carboxylicamino spectinomycin trihydrochloride]	–	>200	–	–	–
CN[C@@H]1[C@H](O)[C@H](NC)[C@H]2O[C@]3(O)[C@H](O[C@@H]2[C@H]1O)O[C@H](C)C[C@H]3NC(=O)Cc1ncccn1.Cl.Cl [Compound 13, 3′-Dihydro-3′-deoxy-3′(R)-(pyrimidin-2yl)acetylamino spectinomycin dihydrochloride]	–	>200	45.50	–	IC50 ([2]; as printed in modeling section): 45.5 µM; Fold weaker binding than 1 ([2]; relative to 1): 39 fold
Br.Br.Br.CNC1C(O)C(NC)C2OC3(O)C(NC(=O)Cc4cccnn4)CC(C)OC3OC2C1O [Compound 14, 3′-Dihydro-3′-deoxy-3′(R)-(pyridazin-3-yl) acetylamino spectinomycin trihydrobromide]	–	12.5	–	2	–
Br.Br.Br.CNC1C(O)C(NC)C2OC3(O)C(OC(C)C[C@H]3NC(=O)Cc3cnccn3)OC2C1O (stereo partly drawn) [Compound 15, 3′-Dihydro-3′-deoxy-3′(R)-(pyrazin-2-yl)acetylamino spectinomycin trihydrobromide]	–	25	–	1	–
Br.Br.Br.CNC1C(O)C(NC)C2OC3(O)C(OC(C)C[C@H]3NC(=O)Cc3ccncn3)OC2C1O (stereo partly drawn) [Compound 16, 3′-Dihydro-3′-deoxy-3′(R)-(pyrimidin-4-yl)acetylamino spectinomycin trihydrobromide]	–	25	–	0.5	–
Br.Br.Br.CNC1C(O)C(NC)C2OC3(O)C(NC(=O)Cc4ccc(C)cn4)CC(C)OC3OC2C1O [Compound 31, 3′-Dihydro-3′-deoxy-3′(R)-(5-methylpyridin-2-yl)acetylamino spectinomycin trihydrobromide]	3.1	3.1	0.54	–	–
CNC1C(O)C(NC)C2OC3(O)C(OC(C)C[C@H]3NC(=O)Cc3ccc(OC(F)F)cn3)OC2C1O.Cl.Cl.Cl (stereo partly drawn) [Compound 40, 3′-Dihydro-3′-deoxy-3′(R)-(5-(difluoromethoxy)pyridin-2-yl)acetylamino spectinomycin trihydrochloride]	–	–	–	2	–
